Assay results published in ChEMBL document CHEMBL3259765, “ProTides of N-(3-(5-(2'-deoxyuridine))prop-2-ynyl)octanamide as potential anti-tubercular and anti-viral agents” (Bioorg Med Chem, 2014).
In brackets after ≈: the same amount, converted by molar mass. Activity calls are given as the source filed them. No cut-off for these calls is given here.

Key:
[1] = tested on: Human alphaherpesvirus 3; assay: Antiviral activity against thymidine kinase-positive Varicella zoster virus Oka infected in HEL cells assessed as reduction in viral plaque formation after 5 days; format: functional, organism-based; conditions: Human alphaherpesvirus 3, strain Oka vaccine, 120 h
[2] = tested on: Human alphaherpesvirus 3; assay: Antiviral activity against thymidine kinase-deficient Varicella zoster virus 07-1 infected in HEL cells assessed as reduction in viral plaque formation after 5 days; format: functional, organism-based; conditions: Human alphaherpesvirus 3, 07-1, HEL, 120 h
[3] = tested on: Human alphaherpesvirus 2; assay: Antiviral activity against Herpes simplex virus 2 G infected in HEL cells assessed as reduction in virus-induced cytopathicity after 3 days; format: functional, organism-based; conditions: Human alphaherpesvirus 2, strain G, 72 h
[4] = Cytotoxicity against HEL cells assessed as reduction in cell growth after 3 to 5 days by Coulter counting analysis; format: cell-based; conditions: human
[5] = Cytotoxicity against HEL cells assessed as morphological changes after 3 to 5 days […]; format: cell-based; conditions: human
[6] = tested on: Mycobacterium tuberculosis; assay: Antibacterial activity against Mycobacterium tuberculosis H37Rv ATCC 27294 up to 2 weeks by HT-SPOTi assay; format: functional; conditions: H37Rv ATCC 27294, 336 h
[7] = tested on: Escherichia coli; assay: Antibacterial activity against Escherichia coli DH5[alpha] ATCC 53868 after overnight incubation by HT-SPOTi assay; format: functional, organism-based
[8] = tested on: Human alphaherpesvirus 1; assay: Antiviral activity against thymidine kinase-positive Herpes simplex virus 1 KOS infected in HEL cells assessed as reduction in virus-induced cytopathicity after 3 days; format: functional, organism-based; conditions: Human alphaherpesvirus 1, KOS, 72 h
[9] = tested on: Human alphaherpesvirus 1; assay: Antiviral activity against thymidine kinase-deficient ACV-resistant Herpes simplex virus 1 B-2006 infected in HEL cells assessed as reduction in virus-induced cytopathicity after 3 days; format: functional, organism-based; conditions: Human alphaherpesvirus 1, B-2006, HEL, 72 h
[10] = tested on: Human betaherpesvirus 5; assay: Antiviral activity against Human cytomegalovirus Davis infected in HEL cells assessed as reduction in virus-induced cytopathicity after 7 days; format: functional, organism-based
[11] = tested on: Human betaherpesvirus 5; assay: Antiviral activity against Human cytomegalovirus AD169 infected in HEL cells assessed as reduction in virus-induced cytopathicity after 7 days; format: functional, organism-based
[12] = tested on: Vaccinia virus; assay: Antiviral activity against Vaccinia virus infected in HEL cells assessed as reduction in virus-induced cytopathicity after 3 days; format: functional, organism-based; conditions: Orthopoxvirus vaccinia

| Structure (SMILES) | EC50 [1] | EC50 [2] | EC50 [3] | CC50 [4] | MCC [5] | MIC [6] | Activity [7] | EC50 [8] | EC50 [9] | Activity [10] | Activity [11] | Activity [12] |
| --- | --- | --- | --- | --- | --- | --- | --- | --- | --- | --- | --- | --- |
| Nc1nc2c(ncn2COCCO)c(=O)[nH]1 [ACYCLOVIR] | 2.6 µM | 140 µM | 0.1 µM | 440 µM | > 440 µM | – | – | – | – | – | – | – |
| CCCCCCCC(=O)NCC#Cc1cn([C@H]2C[C@H](O)[C@@H](COP(=O)(NC(C)(C)C(=O)OCc3ccccc3)Oc3ccccc3)O2)c(=O)[nH]c1=O (stereo not given in full) | – | – | – | – | – | > 125 µg/mL | inactive | – | – | – | – | – |
| CCCCCCCC(=O)NCC#Cc1cn([C@H]2C[C@H](O)[C@@H](COP(=O)(N[C@@H](C)C(=O)OCC(C)C)Oc3cccc4ccccc34)O2)c(=O)[nH]c1=O (stereo not given in full) | 20 µM | > 20 µM | > 100 µM | 15 µM | > 100 µM | 62.5 µg/mL (≈ 84.4 µM) | inactive | > 100 µM | > 100 µM | inactive | inactive | inactive |
| CCCCCCCC(=O)NCC#Cc1cn([C@H]2C[C@H](O)[C@@H](COP(=O)(NCC(=O)OCc3ccccc3)Oc3ccccc3)O2)c(=O)[nH]c1=O (stereo not given in full) | – | – | – | – | – | > 250 µg/mL | inactive | – | – | – | – | – |
| CCCCCCCC(=O)NCC#Cc1cn([C@H]2C[C@H](O)[C@@H](COP(=O)(N[C@@H](C)C(=O)OCc3ccccc3)Oc3ccccc3)O2)c(=O)[nH]c1=O (stereo not given in full) | 2 µM | > 20 µM | 4 µM | 48 µM | > 100 µM | 125 µg/mL (≈ 172 µM) | inactive | 2 µM | > 100 µM | inactive | inactive | inactive |
| CCCCCCCC(=O)NCC#Cc1cn([C@H]2C[C@H](O)[C@@H](COP(=O)(N[C@@H](C)C(=O)OCCC)Oc3ccccc3)O2)c(=O)[nH]c1=O (stereo not given in full) | – | – | – | – | – | 125 µg/mL (≈ 185 µM) | inactive | – | – | – | – | – |
| CCCCCCCC(=O)NCC#Cc1cn([C@H]2C[C@H](O)[C@@H](COP(=O)(N[C@H](C(=O)OCc3ccccc3)C(C)C)Oc3ccccc3)O2)c(=O)[nH]c1=O (stereo not given in full) | – | – | – | – | – | 31.2 µg/mL (≈ 41.5 µM) | inactive | – | – | – | – | – |
| CCCCCCCC(=O)NCC#Cc1cn([C@H]2C[C@H](O)[C@@H](COP(=O)(N[C@@H](C)C(=O)OC)Oc3cccc4ccccc34)O2)c(=O)[nH]c1=O (stereo not given in full) | 37 µM | 46 µM | > 100 µM | 64 µM | > 100 µM | 62.5 µg/mL (≈ 89.5 µM) | inactive | > 100 µM | > 100 µM | inactive | inactive | inactive |
| CCCCCCCC(=O)NCC#Cc1cn([C@H]2C[C@H](O)[C@@H](CO)O2)c(=O)[nH]c1=O | > 100 µM | > 100 µM | > 100 µM | > 100 µM | – | > 250 µg/mL | inactive | > 100 µM | > 100 µM | inactive | inactive | inactive |
| CCCCCCCC(=O)NCC#Cc1cn([C@H]2C[C@H](O)[C@@H](COP(=O)(N[C@@H](C)C(=O)OCC)Oc3cccc4ccccc34)O2)c(=O)[nH]c1=O (stereo not given in full) | – | – | – | – | – | 125 µg/mL (≈ 175 µM) | inactive | – | – | – | – | – |
| CCCCCCCC(=O)NCC#Cc1cn([C@H]2C[C@H](O)[C@@H](COP(=O)(N[C@@H](C)C(=O)OCC)Oc3ccccc3)O2)c(=O)[nH]c1=O (stereo not given in full) | – | – | – | – | – | 250 µg/mL (≈ 377 µM) | inactive | – | – | – | – | – |
| CCCCCCCC(=O)NCC#Cc1cn([C@H]2C[C@H](O)[C@@H](COP(=O)(N[C@@H](C)C(=O)OCc3ccccc3)Oc3cccc4ccccc34)O2)c(=O)[nH]c1=O (stereo not given in full) | 8.6 µM | > 20 µM | > 100 µM | 39 µM | > 100 µM | 250 µg/mL (≈ 323 µM) | inactive | > 100 µM | > 100 µM | inactive | inactive | inactive |
| CCCCCCCC(=O)NCC#Cc1cn([C@H]2C[C@H](O)[C@@H](COP(=O)(N[C@@H](C)C(=O)OC)Oc3ccccc3)O2)c(=O)[nH]c1=O (stereo not given in full) | – | – | – | – | – | > 250 µg/mL | inactive | – | – | – | – | – |
| CCCCCCCC(=O)NCC#Cc1cn([C@H]2C[C@H](O)[C@@H](COP(=O)(N[C@H](C)C(=O)OCc3ccccc3)Oc3ccccc3)O2)c(=O)[nH]c1=O (stereo not given in full) | – | – | – | – | – | 125 µg/mL (≈ 172 µM) | inactive | – | – | – | – | – |
